Among the data in PubChem BioAssay (NCI) are TGI values, retold here.

Test systems include K-562 leukemia; TK-10 renal; ACHN renal; SW-620 colon; EKVX NSCLC; LOX IMVI melanoma; SF-539 CNS; MALME-3M melanoma; MDA-MB-435; MDA-N.
Holding throughout (assay): DTP human tumour cell line panel, 48 h

Structures are written as SMILES.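 How tested: cells in 96-well plates exposed to compound for 48 hours at five concentrations. The concentration for full growth arrest is given as TGI.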 Where only a bound is given, the exact number is not on record here.

With `Cc1cccc2c(N)c3cccc(C(=O)NCC[N+](C)(C)[O-])c3nc12`, the TGI (as a rule, the concentration at which net growth stops) in the experiment on K-562 leukemia was over 100 µM; in the experiment on TK-10 renal, over 100 µM; in the experiment on ACHN renal, 77.9 µM; with SW-620 colon, over 100 µM; in the experiment with EKVX NSCLC, 87.4 µM; with LOX IMVI melanoma, over 100 µM. The TGI in the experiment on SF-539 CNS worked out at 36.7 µM; in the experiment with MALME-3M melanoma it was 52.5 µM; in the experiment with MDA-MB-435 it was 41.5 µM; with MDA-N, 42.7 µM.
With `Fc1cccc(F)c1C1SCc2nc3cc(Cl)ccc3n21` (stereo not given), the TGI was over 100 µM with K-562 leukemia; over 100 µM with TK-10 renal; over 100 µM in the experiment on ACHN renal; over 100 µM in the experiment on SW-620 colon; over 100 µM with EKVX NSCLC; 40 µM in the experiment with LOX IMVI melanoma. In addition, the TGI in the experiment with SF-539 CNS is over 100 µM; in the experiment with MALME-3M melanoma, over 31.6 µM; in the experiment on MDA-MB-435, over 100 µM; with MDA-N, over 100 µM.
Take `O=C(O)C12C3C4(C(=O)O)C1C1(C(=O)O)C2C3(C(=O)O)C41` (stereo not given): the TGI with K-562 leukemia, in the experiment with TK-10 renal, with ACHN renal, in the experiment with SW-620 colon, in the experiment with EKVX NSCLC and in the experiment on LOX IMVI melanoma was over 100 µM in each case. Further, the TGI in the experiment with SF-539 CNS, with MALME-3M melanoma, in the experiment on MDA-MB-435 and in the experiment with MDA-N was over 100 µM in each case.
`CC(C)(C)C#CI1OC(=O)c2ccccc21`: the TGI with K-562 leukemia worked out at 11.7 µM; in the experiment with TK-10 renal, 15.8 µM; in the experiment with ACHN renal it was 8.42 µM; in the experiment on SW-620 colon, 10.3 µM; with EKVX NSCLC it was 17.5 µM; in the experiment on LOX IMVI melanoma it was 3.89 µM. Further, the total growth inhibition concentration (TGI) came to 7.13 µM with SF-539 CNS, 9.24 µM with MALME-3M melanoma, 18.4 µM in the experiment with MDA-MB-435 and 23.4 µM with MDA-N.
For `Cn1c2ccccc2c2c3c(=O)[nH][nH]c(=O)c3c3c4ccccc4n(C)c3c21`, the TGI in the experiment with K-562 leukemia, in the experiment on TK-10 renal, with ACHN renal, in the experiment on SW-620 colon, in the experiment on EKVX NSCLC and in the experiment with LOX IMVI melanoma was over 100 µM each time. In addition, the TGI in the experiment on SF-539 CNS, in the experiment with MALME-3M melanoma, with MDA-MB-435 and with MDA-N was over 100 µM in each case.
Regarding `CC(C)(C)[Si](C)(C)OC1CCOC1(O)c1ccccn1` (stereo not given), the TGI in the experiment with K-562 leukemia, in the experiment on TK-10 renal, in the experiment on ACHN renal, with SW-620 colon, in the experiment with EKVX NSCLC and in the experiment on LOX IMVI melanoma was over 100 µM throughout. Moreover, the TGI in the experiment on SF-539 CNS, with MALME-3M melanoma, in the experiment with MDA-MB-435 and in the experiment on MDA-N was over 100 µM each time.
Regarding `COC(=O)Cc1c2n(c3ccccc13)C(=O)N1c3ccccc3C(CC(=O)OC)C21` (stereo not given), the TGI in the experiment with K-562 leukemia was over 100 µM; with TK-10 renal, 47.7 µM; in the experiment on ACHN renal it was over 100 µM; with SW-620 colon, over 100 µM; in the experiment with EKVX NSCLC it was over 100 µM; in the experiment with LOX IMVI melanoma it was over 100 µM. Moreover, the TGI in the experiment on SF-539 CNS is 49.4 µM; in the experiment on MALME-3M melanoma, over 100 µM; with MDA-MB-435, over 100 µM; in the experiment with MDA-N, over 100 µM.
As for `O=C1c2c(Br)sc(Br)c2[C@H]2OC(=S)N[C@@H]12`, the TGI in the experiment with K-562 leukemia was 6.35 µM; in the experiment with TK-10 renal, 35 µM; in the experiment with ACHN renal it was 11.1 µM; in the experiment with SW-620 colon it was 5.84 µM; with EKVX NSCLC it was 11.4 µM; in the experiment on LOX IMVI melanoma, 10.9 µM. The TGI with SF-539 CNS was found to be 31.2 µM; in the experiment with MALME-3M melanoma, 10.4 µM; with MDA-MB-435, 8.65 µM; in the experiment with MDA-N, 16.9 µM.
As for `Cc1ccc2nc(Nc3ccccc3C)c(Nc3ccccc3C)nc2c1`, the TGI in the experiment on K-562 leukemia was over 57.4 µM; in the experiment with TK-10 renal it was over 92.7 µM; in the experiment on ACHN renal, over 100 µM; with SW-620 colon, over 100 µM; with EKVX NSCLC, over 100 µM; with LOX IMVI melanoma it was 39.5 µM. The TGI is over 100 µM in the experiment on SF-539 CNS, 48.8 µM in the experiment on MALME-3M melanoma, over 94.2 µM with MDA-MB-435 and 67.1 µM in the experiment with MDA-N.
In the case of `O=C(O)CCSc1ncnc2nc[nH]c12`, the TGI in the experiment with K-562 leukemia, with TK-10 renal, in the experiment on ACHN renal, in the experiment on SW-620 colon, in the experiment with EKVX NSCLC and in the experiment with LOX IMVI melanoma was over 100 µM in each case. Also, the TGI in the experiment on SF-539 CNS, in the experiment with MALME-3M melanoma, in the experiment on MDA-MB-435 and in the experiment with MDA-N was over 100 µM in each case.
For the compound `CCCCCc1cc(CCCC)sc1-c1ccco1`, the TGI in the experiment with K-562 leukemia, with TK-10 renal, in the experiment with ACHN renal, in the experiment with SW-620 colon, in the experiment on EKVX NSCLC and with LOX IMVI melanoma was over 100 µM each time. In addition, the TGI in the experiment with SF-539 CNS, with MALME-3M melanoma, with MDA-MB-435 and in the experiment on MDA-N was over 100 µM each time.
Take `C[N+]1(CCCCN2c3ccccc3Sc3cc(N=[N+]=[N-])ccc32)CCN(C(=O)CCNC(=O)Cc2ccc(C(=O)c3ccccc3)cc2)CC1`: the TGI in the experiment on K-562 leukemia was over 57.7 µM; in the experiment with TK-10 renal, 26.5 µM; in the experiment on ACHN renal it was 37.2 µM; with SW-620 colon, over 74.6 µM; in the experiment on EKVX NSCLC, over 81.5 µM; with LOX IMVI melanoma, over 78.1 µM. Moreover, the total growth inhibition concentration (TGI) in the experiment with SF-539 CNS was over 76.9 µM; in the experiment with MALME-3M melanoma, 70.8 µM; in the experiment with MDA-MB-435, over 67.7 µM; in the experiment with MDA-N, over 71.9 µM.
Regarding `COc1cc2c3cc1Oc1cc(ccc1O)C[C@@H]1c4c(cc(OC)c(O)c4Oc4ccc(cc4)C[C@@H]3[N+](C)(C)CC2)CC[N+]1(C)C`, the TGI was over 100 µM in the experiment with K-562 leukemia; over 100 µM with TK-10 renal; over 100 µM in the experiment with ACHN renal; over 100 µM with SW-620 colon; over 100 µM in the experiment with EKVX NSCLC; 42.5 µM in the experiment with LOX IMVI melanoma. The TGI is 28.3 µM in the experiment with SF-539 CNS, 74.4 µM in the experiment on MALME-3M melanoma, over 100 µM in the experiment on MDA-MB-435 and over 100 µM with MDA-N.
On to `O=C1c2cccnc2C(=O)c2c1nc1ccccc1c2-c1ccc2c3c(nc4ccccc42)C(=O)c2cccnc2-c13`, for which the TGI in the experiment on K-562 leukemia was over 35.3 µM; in the experiment on TK-10 renal, 19.1 µM; with ACHN renal, 4.1 µM; in the experiment on SW-620 colon, 4.79 µM; in the experiment with EKVX NSCLC, 6.69 µM; in the experiment on LOX IMVI melanoma, 9.12 µM. Also, the TGI in the experiment on SF-539 CNS amounted to 7.49 µM; in the experiment with MALME-3M melanoma it was 4.54 µM; in the experiment with MDA-MB-435 it was 5.58 µM; with MDA-N it was 8.82 µM.
Turning to `COc1ccc2c(c1)-c1nc(=S)n(CCN(C)C)c3ccc([N+](=O)[O-])c(c13)N2`, the TGI came to 2.13 µM in the experiment on K-562 leukemia; 16.5 µM in the experiment with TK-10 renal; 4.97 µM in the experiment with ACHN renal; 3.07 µM in the experiment with SW-620 colon; 7.29 µM in the experiment with EKVX NSCLC; 2.29 µM in the experiment on LOX IMVI melanoma. The TGI in the experiment with SF-539 CNS came to 2.5 µM; with MALME-3M melanoma it was 2.49 µM; in the experiment on MDA-MB-435, 7.82 µM; in the experiment on MDA-N it was 2.19 µM.
For the compound `OC(CCN1CCN(CCOC(c2ccc(F)cc2)c2ccc(F)cc2)CC1)c1ccc(Br)cc1` (stereo not given), the TGI in the experiment on K-562 leukemia was 7 µM; in the experiment with TK-10 renal it was 20.9 µM; in the experiment on ACHN renal, 17 µM; with SW-620 colon it was 31.2 µM; in the experiment on EKVX NSCLC it was 17.7 µM; in the experiment on LOX IMVI melanoma, 4.07 µM. The TGI in the experiment on SF-539 CNS was 5.15 µM; in the experiment on MALME-3M melanoma it was 4.39 µM; in the experiment on MDA-MB-435, 6.82 µM; with MDA-N it was 6.93 µM.
Take `CCOC(=O)OC1(c2ccccc2)CCN(C)CC1`: the TGI in the experiment with K-562 leukemia, in the experiment on TK-10 renal, in the experiment with ACHN renal, in the experiment on SW-620 colon, in the experiment on EKVX NSCLC and in the experiment with LOX IMVI melanoma was over 100 µM each time. The TGI with SF-539 CNS, in the experiment with MALME-3M melanoma, with MDA-MB-435 and with MDA-N was over 100 µM each time.
As for `Cc1nn(C(=O)c2ccccc2O)c2c1C(c1ccc([N+](=O)[O-])cc1)SC(N)=N2` (stereo not given), the TGI with K-562 leukemia is over 10 µM; in the experiment on TK-10 renal, over 10 µM; in the experiment on ACHN renal, over 8.37 µM; in the experiment with SW-620 colon, over 10 µM; with EKVX NSCLC, over 10 µM; in the experiment with LOX IMVI melanoma it was over 10 µM. Besides, the TGI is over 2.67 µM in the experiment with SF-539 CNS, over 10 µM in the experiment on MALME-3M melanoma, over 10 µM with MDA-MB-435 and over 10 µM in the experiment with MDA-N.
Take `C=CCN(c1cc(OC)c2[nH]c(C(=O)O)c(C)c2c1[N+](=O)[O-])S(C)(=O)=O`: the TGI with K-562 leukemia, with TK-10 renal, with ACHN renal, with SW-620 colon, in the experiment on EKVX NSCLC and in the experiment with LOX IMVI melanoma was over 100 µM each time. Besides, the TGI is over 100 µM in the experiment on SF-539 CNS, 52.3 µM in the experiment with MALME-3M melanoma, over 100 µM in the experiment with MDA-MB-435 and over 100 µM in the experiment on MDA-N.
Take `COC(=O)c1ccc2cc(O)ccc2c1`: the TGI in the experiment with K-562 leukemia, in the experiment on TK-10 renal, in the experiment on ACHN renal, with SW-620 colon, with EKVX NSCLC and in the experiment on LOX IMVI melanoma was over 100 µM each time. Besides, the TGI in the experiment on SF-539 CNS, in the experiment with MALME-3M melanoma, with MDA-MB-435 and with MDA-N was over 100 µM each time.
